Counter-ions that a name gives are not always drawn. Like-named read-outs stand apart in the source and are kept apart here. No end group written: not given here.
Assays:
[1] = system: rat prostate; test: Prostate volume in rats after intraprostatic (whole gland) injection; type: in vivo, Sprague-Dawley rats; details: control injection 0.5 mL HCl in water pH 3.0-5.0, 24 hr-10 days
Description: (§1) Two month old Sprague-Dawley rats (n=268) weighing 200 to 300 g, housed in groups of 2-5 per cage at room temperature (24-26° C.), with standard unrestricted diet and water, were anesthetized with ether and underwent open laparoscopic injections, using sterile precautions and sterile techniques, without antibiotics, of 0.3 mL of FT 0.1-2.0 mg/mL in phosphate buffered saline (PBS) pH 7.4, administered by #26 gauge sterile needles attached to sterile syringes. The animals received a “whole gland” injection in an amount roughly 20 times the amount previously administered to humans. […] The rats were daily observed and painlessly sacrificed after post-treatment intervals of 24 hours to 12 months under either anesthesia.
(§2) Sub-groups of rats received repeated injections (2×-8×, on a once weekly basis) (Table 1).
(§3) Apoptosis was evaluated microscopically in H&E stained sections, including rats sacrificed after 24, 48, and 72 hours, 4-8 days, and 1, 3, 6, and 12 months. […] TUNEL staining was assessed in 21 animals (72 hours; 7 days, post-treatment). Prostate volume (calculated by approximation to a sphere using the mean of 8 perpendicular diameters (2 per section at 90 degrees; on four sections) and calculations of 4/3 π(D/2)^3) were assessed in all animals and all controls. […]

[2] = system: rat prostate glandular epithelium, nerves, stroma, vessels; test: Prostate histology (H&E, Bielschowsky silver, TUNEL) in treated rats; type: in vivo, Sprague-Dawley rats
Description: as §1
Prostate glands were removed, bisected, and immersed in 10% formalin solution, and subsequently embedded in paraffin, sectioned, and stained with (1) hematoxylin-eosin (H&E); (2) Bielschowsky silver method for nerve fibers; and (3) immunohistochemical TUNEL staining. TUNEL (Terminal deoxynucleotidyl transferase (dUTP) nick end labeling) detects DNA fragmentation by labeling the 3′-hydroxyl termini in the double-stand DNA breaks generated during apoptosis. Prostate cell lines (PC3 and LNCAP) were treated with FT 0.001 or 0.25 mg/mL in 6, 24, and 48 well plates and harvested and pelleted at 0, 12, 24, and 48 hours. […] The same treated cell lines under the same conditions were also stained in vitro after treatment using Annexin V immunofluorescence methods and viewed under ultraviolet light, and cell loss in vitro was assessed quantitatively (Multitox-Fluor, Promega). […]
as §3

[3] = in vivo
Excerpt: as §2

Compound | Prostate Volume mm^3-Mean (SD) [1] | rats with focal ischemic or hemorrhagic infarctions and necrosis ([2]; HCl pH 3.0-5.0 injected, involving <5% of the cross-sectional area) | nerves and blood vessels ([2]; all time intervals) | nerve histology ([2]; all time points including 6 months and 1 year) | toxic effects ([3]; dog) | toxic effects ([3]; rabbit) | toxic effects ([3]; rat)
Cl [HCl, reference compound] | 859.7 (278.1) mm^3 | 2/12 |  |  |  |  | 
IDQQVLSRIKLEIKRCL [FT, Ile-Asp-Gln-Gln-Val-Leu-Ser-Arg-Ile-Lys-Leu-Glu-Ile-Lys-Arg-Cys-Leu] |  |  | intact | normal appearing nerves | no toxic effects | no toxic effects | no toxic effects
